Consider 12 compounds from US20240166652A1, “MODULATORS OF THE INTEGRATED STRESS PATHWAY” (Calico Life Sciences LLC, priority 2017, published 2024).

The assay has as its system ATF4 luciferase reporter in HEK293T cells. In words: ATF4-Luc assay (ATF4 luciferase reporter, tunicamycin-treated HEK293T cells). It counts as cell-based, human. The note with it: Homo sapiens, HEK-293T; HEK293T cells carrying the ATF4 luciferase reporter, 1 μg/mL tunicamycin, 7 hours.
For the compound `O=C(COc1ccc(F)c(OC(F)F)c1)NC12CCC(NC(=O)COc3ccc(Cl)c(F)c3)(CC1)[C@@H](O)C2` [Compound 808, 2-(4-chloro-3-fluorophenoxy)-N-[(2S)-4-{2-[3-(difluoromethoxy)-4-fluorophenoxy]acetamido}-2-hydroxybicyclo[2.2.2]octan-1-yl]acetamide], the EC50 was < 0.01 µM.

With `O=C(COc1ccc(F)c(F)c1)NC12CCC(NC(=O)COc3cccc(C(F)(F)F)c3)(CC1)[C@@H](O)C2` [Compound 809, 2-(3,4-difluorophenoxy)-N-[(3S)-3-hydroxy-4-{2-[3-(trifluoromethyl)phenoxy]acetamido}bicyclo[2.2.2]octan-1-yl]acetamide], the EC50 is < 0.01 µM.

Regarding `N[C@H](CC(=O)NC12CC(NC(=O)COc3ccc(Cl)c(F)c3)(C1)C2)Cc1ccccc1` [Compound 810, (3S)-3-amino-N-{3-[2-(4-chloro-3-fluorophenoxy)acetamido]bicyclo[1.1.1]pentan-1-yl}-4-phenylbutanamide], the EC50 is > 2 µM.

Regarding `O=C(COc1ccc(F)c(F)c1)NC12CCC(NC(=O)COc3ccc(F)cc3)(CC1)[C@@H](O)C2` [Compound 811, 2-(3,4-difluorophenoxy)-N-{(3S)-4-[2-(4-fluorophenoxy)acetamido]-3-hydroxybicyclo[2.2.2]octan-1-yl}acetamide], the EC50 was < 0.01 µM.

With `O=C(COc1ccc(F)c(F)c1)NC12CCC(NC(=O)COc3ccc(F)c(OC(F)(F)F)c3)(CC1)[C@@H](O)C2` [Compound 812, 2-(3,4-difluorophenoxy)-N-[(3S)-4-{2-[4-fluoro-3-(trifluoromethoxy)phenoxy]acetamido}-3-hydroxybicyclo[2.2.2]octan-1-yl]acetamide], the EC50 was < 0.01 µM.

For the compound `O=C(COc1ccc(F)c(F)c1)NC12CCC(NC(=O)COc3ccc(Cl)cc3)(CC1)[C@@H](O)C2` [Compound 813, 2-(4-chlorophenoxy)-N-{(2S)-4-[2-(3,4-difluorophenoxy)acetamido]-2-hydroxybicyclo[2.2.2]octan-1-yl}acetamide], the EC50 was < 0.01 µM.

For the compound `Cc1cc(OCC(=O)NC23CCC(NC(=O)COc4ccc(Cl)c(F)c4)(CC2)[C@@H](O)C3)ccc1F` [Compound 814, 2-(4-chloro-3-fluorophenoxy)-N-{(2S)-4-[2-(4-fluoro-3-methylphenoxy)acetamido]-2-hydroxybicyclo[2.2.2]octan-1-yl}acetamide], the EC50 is < 0.01 µM.

On to `Cc1cc(OCC(=O)NC23CCC(NC(=O)COc4ccc(F)c(F)c4)(CC2)[C@@H](O)C3)ccc1F` [Compound 815, 2-(3,4-difluorophenoxy)-N-{(2S)-4-[2-(4-fluoro-3-methylphenoxy)acetamido]-2-hydroxybicyclo[2.2.2]octan-1-yl}acetamide], for which the EC50 is < 0.01 µM.

Consider `Cc1cc(OCC(=O)NC23CCC(NC(=O)COc4ccc(Cl)cc4)(CC2)[C@@H](O)C3)ccc1F` [Compound 816, 2-(4-chlorophenoxy)-N-{(2S)-4-[2-(4-fluoro-3-methylphenoxy)acetamido]-2-hydroxybicyclo[2.2.2]octan-1-yl}acetamide], for which the EC50 was < 0.01 µM.

For `Cc1cc(OCC(=O)NC23CCC(NC(=O)COc4ccc(F)cc4)(CC2)[C@@H](O)C3)ccc1F` [Compound 817, 2-(4-fluoro-3-methylphenoxy)-N-{(3S)-4-[2-(4-fluorophenoxy)acetamido]-3-hydroxybicyclo[2.2.2]octan-1-yl}acetamide], the EC50 was < 0.01 µM.

For `CS(=O)(=O)c1cc(OCC(=O)NC23CCC(NC(=O)COc4ccc(F)c(F)c4)(CC2)[C@@H](O)C3)ccc1F` [Compound 818, 2-(3,4-difluorophenoxy)-N-[(2S)-4-{2-[4-fluoro-3-(methanesulfonyl)phenoxy]acetamido}-2-hydroxybicyclo[2.2.2]octan-1-yl]acetamide], the EC50 fell in the range of 0.25 to 0.5 µM.

For the compound `CS(=O)(=O)c1cc(OCC(=O)NC23CCC(NC(=O)COc4ccc(F)cc4)(CC2)[C@@H](O)C3)ccc1F` [Compound 819, 2-[4-fluoro-3-(methanesulfonyl)phenoxy]-N-{(3S)-4-[2-(4-fluorophenoxy)acetamido]-3-hydroxybicyclo[2.2.2]octan-1-yl}acetamide], the EC50 is 0.5 to 2 µM.
